Columns and labels:
[1] = system: THP1-Dual cells, NF-κB pathway (SEAP); experiment: THP-1 Dual cell SEAP assay (L18-MDP stimulated); format: cell-based; settings: Homo sapiens, 10 ng/mL L18-MDP, 20-24 h, SEAP readout, read-out: IFNγ THP1 IC50
Outline: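 About 25,000 THP1-Dual cells per well were preincubated 30 min with serially diluted compound, then stimulated overnight (20-24 h, 37 °C) with 10 ng/mL L18-MDP (final). NF-κB-driven SEAP in supernatant was read with QUANTI-Blue at OD 620-655 nm after 2 h; % inhibition versus DMSO/L18-MDP wells was fitted by non-linear regression to give IC50.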

[2] = biological target: T1, RIPK2 (KD)/XIAP (BIR2) (Homo sapiens, UniProt O43353); experiment: RIPK2-XIAP binding competition PPI assay (TR-FRET); settings: for Emax: 50 nM of GSK583 = -100% activity, read-out: PPI Amax; for IC50: GST-RIPK2 / His-XIAP (BIR2)-avi, 120 min at 23° C.
T1 construct: made in house; host or cells: baculovirus-infected Sf9 cells
T1 sequence (O43353 1-310): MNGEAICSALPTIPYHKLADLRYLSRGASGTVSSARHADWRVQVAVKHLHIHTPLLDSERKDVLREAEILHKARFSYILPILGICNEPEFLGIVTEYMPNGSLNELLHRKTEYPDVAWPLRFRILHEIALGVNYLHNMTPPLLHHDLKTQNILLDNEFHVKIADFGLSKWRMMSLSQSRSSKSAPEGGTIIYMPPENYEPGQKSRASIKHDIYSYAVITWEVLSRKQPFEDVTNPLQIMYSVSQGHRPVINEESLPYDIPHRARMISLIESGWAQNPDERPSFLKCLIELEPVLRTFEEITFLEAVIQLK
Outline: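 TR-FRET competition between GST-RIPK2 (aa 1-310, 1 nM) and His-XIAP BIR2-avi (aa 152-231, 25 nM), both Sf9-expressed, detected with anti-His-XL665 and anti-GST-Tb in Tris pH 7.5 buffer with MgCl2, DTT and vanadate. Incubation was 120 min at 23 °C; the 665/520 nm ratio was normalized to no inhibitor (0%) and 50 nM GSK583 (−100%).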

COc1cc2ncc(-c3cc(C(=O)NCc4ncn(C)n4)n(C)n3)n2cc1S(=O)(=O)C(C)(C)C [Example 81, 3-(6-(tert-butylsulfonyl)-7-methoxyimidazo[1,2-a]pyridin-3-yl)-1-methyl-N-((1-methyl-1H-1,2,4-triazol-3-yl)methyl)-1H-pyrazole-5-carboxamide]
IC50 [1]: > 2500 nM
Emax [2]: ≥ 80%
IC50 [2]: 100 to 1000 nM

COc1cc2ncc(-c3cc(C(=O)NCc4ncccc4C#N)n(C)n3)n2cc1S(=O)(=O)C(C)(C)C [Example 82, 3-(6-(tert-butylsulfonyl)-7-methoxyimidazo[1,2-a]pyridin-3-yl)-N-((3-cyanopyridin-2-yl)methyl)-1-methyl-1H-pyrazole-5-carboxamide]
IC50 [1]: 500 to 2500 nM
Emax [2]: ≥ 80%
IC50 [2]: 10 to 100 nM

COc1cc2ncc(-c3cc(C(=O)NCc4ccccc4C#N)n(C)n3)n2cc1S(=O)(=O)C(C)(C)C [Example 83, 3-(6-(tert-butylsulfonyl)-7-methoxyimidazo[1,2-a]pyridin-3-yl)-N-(2-cyanobenzyl)-1-methyl-1H-pyrazole-5-carboxamide]
IC50 [1]: > 2500 nM
Emax [2]: ≥ 80%
IC50 [2]: 100 to 1000 nM

COc1cc2ncc(-c3cc(C(=O)NCc4nccs4)n(C)n3)n2cc1S(=O)(=O)C(C)(C)C [Example 84, 3-(6-(tert-butylsulfonyl)-7-methoxyimidazo[1,2-a]pyridin-3-yl)-1-methyl-N-(thiazol-2-ylmethyl)-1H-pyrazole-5-carboxamide]
IC50 [1]: 500 to 2500 nM
Emax [2]: ≥ 80%
IC50 [2]: 10 to 100 nM

COc1cc2ncc(-c3cc(C(=O)NCc4cscn4)n(C)n3)n2cc1S(=O)(=O)C(C)(C)C [Example 85, 3-(6-(tert-butylsulfonyl)-7-methoxyimidazo[1,2-a]pyridin-3-yl)-1-methyl-N-(thiazol-4-ylmethyl)-1H-pyrazole-5-carboxamide]
IC50 [1]: 500 to 2500 nM
Emax [2]: ≥ 80%
IC50 [2]: 10 to 100 nM

COc1cc2ncc(-c3cc(C(=O)NCc4ccsn4)n(C)n3)n2cc1S(=O)(=O)C(C)(C)C [Example 86, 3-(6-(tert-butylsulfonyl)-7-methoxyimidazo[1,2-a]pyridin-3-yl)-N-(isothiazol-3-ylmethyl)-1-methyl-1H-pyrazole-5-carboxamide]
IC50 [1]: 100 to 500 nM
Emax [2]: ≥ 80%
IC50 [2]: 10 to 100 nM

COc1cc2ncc(-c3cc(C(=O)NCc4cc(C)sn4)n(C)n3)n2cc1S(=O)(=O)C(C)(C)C [Example 87, 3-(6-(tert-butylsulfonyl)-7-methoxyimidazo[1,2-a]pyridin-3-yl)-1-methyl-N-((5-methylisothiazol-3-yl)methyl)-1H-pyrazole-5-carboxamide]
IC50 [1]: 500 to 2500 nM
Emax [2]: ≥ 80%
IC50 [2]: 10 to 100 nM

COc1cc2ncc(-c3cc(C(=O)NCc4nc(C)cs4)n(C)n3)n2cc1S(=O)(=O)C(C)(C)C [Example 88, 3-(6-(tert-butylsulfonyl)-7-methoxyimidazo[1,2-a]pyridin-3-yl)-1-methyl-N-((4-methylthiazol-2-yl)methyl)-1H-pyrazole-5-carboxamide]
IC50 [1]: 500 to 2500 nM
Emax [2]: ≥ 80%
IC50 [2]: 100 to 1000 nM

COc1cc2ncc(-c3cc(C(=O)NCc4ncc(C)s4)n(C)n3)n2cc1S(=O)(=O)C(C)(C)C [Example 89, 3-(6-(tert-butylsulfonyl)-7-methoxyimidazo[1,2-a]pyridin-3-yl)-1-methyl-N-((5-methylthiazol-2-yl)methyl)-1H-pyrazole-5-carboxamide]
IC50 [1]: 100 to 500 nM
Emax [2]: ≥ 80%
IC50 [2]: 10 to 100 nM

COc1cc2ncc(-c3cc(C(=O)NCc4ncsn4)n(C)n3)n2cc1S(=O)(=O)C(C)(C)C [Example 90, N-((1,2,4-thiadiazol-3-yl)methyl)-3-(6-(tert-butylsulfonyl)-7-methoxyimidazo[1,2-a]pyridin-3-yl)-1-methyl-1H-pyrazole-5-carboxamide]
IC50 [1]: 500 to 2500 nM
Emax [2]: 55 to 80%
IC50 [2]: 10 to 100 nM

COc1cc2ncc(-c3cc(C(=O)NCc4nsc(C)n4)n(C)n3)n2cc1S(=O)(=O)C(C)(C)C [Example 91, 3-(6-(tert-butylsulfonyl)-7-methoxyimidazo[1,2-a]pyridin-3-yl)-1-methyl-N-((5-methyl-1,2,4-thiadiazol-3-yl)methyl)-1H-pyrazole-5-carboxamide]
IC50 [1]: > 2500 nM
Emax [2]: 55 to 80%
IC50 [2]: 100 to 1000 nM

COc1cc2ncc(-c3cc(C(=O)NCc4nc(C)c(C)s4)n(C)n3)n2cc1S(=O)(=O)C(C)(C)C [Example 92, 3-(6-(tert-butylsulfonyl)-7-methoxyimidazo[1,2-a]pyridin-3-yl)-N-((4,5-dimethylthiazol-2-yl)methyl)-1-methyl-1H-pyrazole-5-carboxamide]
IC50 [1]: > 2500 nM
Emax [2]: ≥ 80%
IC50 [2]: 100 to 1000 nM

COc1cc2ncc(-c3cc(C(=O)N[C@H](C)c4nccs4)n(C)n3)n2cc1S(=O)(=O)C(C)(C)C [Example 93, (R)-3-(6-(tert-butylsulfonyl)-7-methoxyimidazo[1,2-a]pyridin-3-yl)-1-methyl-N-(1-(thiazol-2-yl)ethyl)-1H-pyrazole-5-carboxamide]
IC50 [1]: 100 to 500 nM
Emax [2]: ≥ 80%
IC50 [2]: 10 to 100 nM

C[C@@H](NC(=O)c1cc(-c2cnc3cc(OCCO)c(S(=O)(=O)C(C)(C)C)cn23)nn1C)c1nccs1 [Example 94, (R)-3-(6-(tert-butylsulfonyl)-7-(2-hydroxyethoxy)imidazo[1,2-a]pyridin-3-yl)-1-methyl-N-(1-(thiazol-2-yl)ethyl)-1H-pyrazole-5-carboxamide]
IC50 [1]: 100 to 500 nM
Emax [2]: ≥ 80%
IC50 [2]: 10 to 100 nM

CCn1nc(-c2cnc3cc(OC)c(S(=O)(=O)C(C)(C)C)cn23)cc1C(=O)N[C@H](C)c1ccccn1 [Example 95, (R)-3-(6-(tert-butylsulfonyl)-7-methoxyimidazo[1,2-a]pyridin-3-yl)-1-ethyl-N-(1-(pyridin-2-yl)ethyl)-1H-pyrazole-5-carboxamide]
IC50 [1]: < 100 nM
Emax [2]: ≥ 80%
IC50 [2]: < 10 nM

CCn1nc(-c2cnc3cc(OC)c(S(=O)(=O)C(C)(C)C)cn23)cc1C(=O)N[C@H](C)c1ncccn1 [Example 96, (R)-3-(6-(tert-butylsulfonyl)-7-methoxyimidazo[1,2-a]pyridin-3-yl)-1-ethyl-N-(1-(pyrimidin-2-yl)ethyl)-1H-pyrazole-5-carboxamide]
IC50 [1]: < 100 nM
Emax [2]: ≥ 80%
IC50 [2]: < 10 nM

CCn1nc(-c2cnc3cc(OC)c(S(=O)(=O)C(C)(C)C)cn23)cc1C(=O)N[C@H](C)c1ncccc1F [Example 97, (R)-3-(6-(tert-butylsulfonyl)-7-methoxyimidazo[1,2-a]pyridin-3-yl)-1-ethyl-N-(1-(3-fluoropyridin-2-yl)ethyl)-1H-pyrazole-5-carboxamide]
IC50 [1]: < 100 nM
Emax [2]: ≥ 80%
IC50 [2]: < 10 nM

CCn1nc(-c2cnc3cc(OC)c(S(=O)(=O)C(C)(C)C)cn23)cc1C(=O)N[C@H](C)c1nccs1 [Example 98, (R)-3-(6-(tert-butylsulfonyl)-7-methoxyimidazo[1,2-a]pyridin-3-yl)-1-ethyl-N-(1-(thiazol-2-yl)ethyl)-1H-pyrazole-5-carboxamide]
IC50 [1]: < 100 nM
Emax [2]: ≥ 80%
IC50 [2]: < 10 nM

COc1cc2ncc(-c3cc(C(=O)N[C@H](C)c4ccccn4)n(C4CC4)n3)n2cc1S(=O)(=O)C(C)(C)C [Example 99, (R)-3-(6-(tert-butylsulfonyl)-7-methoxyimidazo[1,2-a]pyridin-3-yl)-1-cyclopropyl-N-(1-(pyridin-2-yl)ethyl)-1H-pyrazole-5-carboxamide]
IC50 [1]: < 100 nM
Emax [2]: ≥ 80%
IC50 [2]: < 10 nM

COc1cc2ncc(-c3cc(C(=O)N[C@H](C)c4ncccn4)n(C4CC4)n3)n2cc1S(=O)(=O)C(C)(C)C [Example 100, (R)-3-(6-(tert-butylsulfonyl)-7-methoxyimidazo[1,2-a]pyridin-3-yl)-1-cyclopropyl-N-(1-(pyrimidin-2-yl)ethyl)-1H-pyrazole-5-carboxamide]
IC50 [1]: < 100 nM
Emax [2]: ≥ 80%
IC50 [2]: < 10 nM

COc1cc2ncc(-c3cc(C(=O)N[C@H](C)c4ccccn4)n(C(C)C)n3)n2cc1S(=O)(=O)C(C)(C)C [Example 101, (R)-3-(6-(tert-butylsulfonyl)-7-methoxyimidazo[1,2-a]pyridin-3-yl)-1-isopropyl-N-(1-(pyridin-2-yl)ethyl)-1H-pyrazole-5-carboxamide]
IC50 [1]: < 100 nM
Emax [2]: ≥ 80%
IC50 [2]: < 10 nM

COc1cc2ncc(-c3cc(C(=O)N[C@H](C)c4ncccn4)n(C(C)C)n3)n2cc1S(=O)(=O)C(C)(C)C [Example 102, (R)-3-(6-(tert-butylsulfonyl)-7-methoxyimidazo[1,2-a]pyridin-3-yl)-1-isopropyl-N-(1-(pyrimidin-2-yl)ethyl)-1H-pyrazole-5-carboxamide]
IC50 [1]: < 100 nM
Emax [2]: ≥ 80%
IC50 [2]: < 10 nM

COc1cc2ncc(-c3cc(C(=O)N[C@H](C)c4ncccn4)n(C)n3)n2cc1S(=O)(=O)C(C)(C)C [Example 103, (R)-3-(6-(tert-butylsulfonyl)-7-methoxyimidazo[1,2-a]pyridin-3-yl)-1-methyl-N-(1-(pyrimidin-2-yl)ethyl)-1H-pyrazole-5-carboxamide]
IC50 [1]: 100 to 500 nM
Emax [2]: ≥ 80%
IC50 [2]: 10 to 100 nM
